From patent US20070270403A1 (priority 2003, published 2007)
Like-named read-outs stand apart in the source and are kept apart here.

Experiments:
[1] = test system: 5-HT release in NAcc; test: In vivo microvoltammetry, 5-HT release in NAcc (clozapine studies); parameters: species or system Sprague-Dawley Rattus Norvegicus; settings: ketanserin 3 mg/kg s.c. substituted for clozapine
Experimental: (§1) There is an increasing awareness that a psychosis, similar to that of schizophrenic psychosis, can be derived from cocaine addiction. […] Release mechanisms for monoamines, were determined by using a depolarization blocker, gamma-butyrolactone (γBL). […] Acute and Subacute studies were performed for each treatment group.
(§2) The stereotaxic equipment was purchased from David Kopf Instruments, Tujunga, Calif. A Ag/AgCl reference electrode was placed in contact with dura, 7 mm anteriorally and contralaterally to the indicator microelectrode. A stainless steel auxiliary microelectrode was placed in contact with dura. BRODERICK PROBE® microelectrodes were manufactured on site.
(§3) In vivo microvoltammetric studies on conscious Sprague-Dawley laboratory rats were begun nine to fifteen days after the aseptic surgical operations were performed. On each experimental day, the animal was placed in a Plexiglas-copper faradaic chamber. The three-microelectrode assembly, enclosed within the animal's prosthetic acrylic cap, was connected to a CV37 detector by means of a mercury commutator (Br. Res. Instr., Princeton, N.J.), a flexible cable, and a mating connector (BJM Electronics, Staten Island, N.Y.). The CV37 detector was electrically connected to a Minigard surge suppresser (Jefferson Electric, Magnetek, N.Y.) which was then connected to an electrical ground in isolation. […] Each animal was used as its own control. Changes in synaptic concentrations of DA and 5-HT are presented as percent change (% of control) in order to minimize normal between-animal variations. […] In vivo microvoltammetric scans were recorded in sec and repeated every five min for a period of 2 hrs before each treatment and a period of two hrs after each treatment.
(§4) Potentials were applied with a CV37 detector (BAS, West Lafayette, Ind.). Potentials were applied from −0.2V to +0.4V with respect to a Ag/AgCl (1M NaCl) electrode, at a scan rate of 10 mV/sec at time constants of 5 and 1 tau. One scan was completed in 60 sec. Non-faradaic charging current was eliminated in the first 25 sec.
(§5) Calibration curves were determined experimentally, in vitro, in a freshly prepared deoxygenated physiological saline-phosphate buffer solution (0.01 M, pH=7.4). We use ultra pure Nitrogen (N2) (T. W. Smith Corp., Bklyn, N.Y.) to deoxygenate the buffer solution. […] Calibration studies were also performed in freshly prepared deoxygenated buffer solutions containing phosphotidylethanolamine (PEA), combined with bovine serum albumin (BSA) (Sigma Aldrich, St. Louis, Mo.), a solution which closely mimics brain constituents. […] Detection limits for basal synaptic concentrations of DA and 5-HT in NAcc were 12 nM and 2 nM respectively.

[2] = target: DA2 receptors (Homo sapiens, UniProt P14416); settings: ketanserin: DA receptors; cited from earlier work
Chain of DA2 receptors (P14416 whole entry): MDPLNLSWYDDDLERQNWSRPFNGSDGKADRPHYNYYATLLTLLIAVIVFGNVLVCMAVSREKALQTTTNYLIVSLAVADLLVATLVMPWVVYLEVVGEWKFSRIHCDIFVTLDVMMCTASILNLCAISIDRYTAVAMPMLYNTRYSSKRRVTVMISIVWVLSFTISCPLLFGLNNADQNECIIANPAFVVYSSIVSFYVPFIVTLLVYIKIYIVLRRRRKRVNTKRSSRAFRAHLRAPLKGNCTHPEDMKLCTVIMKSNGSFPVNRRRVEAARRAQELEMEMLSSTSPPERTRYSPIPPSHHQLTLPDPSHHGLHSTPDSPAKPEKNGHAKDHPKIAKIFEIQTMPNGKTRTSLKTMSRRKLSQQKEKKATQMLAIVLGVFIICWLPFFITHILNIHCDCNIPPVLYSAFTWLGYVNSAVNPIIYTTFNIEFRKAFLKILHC

[3] = target: 5-HT2A receptors (Homo sapiens, UniProt P28223); settings: cited from earlier work
Chain of 5-HT2A receptors (P28223 whole entry): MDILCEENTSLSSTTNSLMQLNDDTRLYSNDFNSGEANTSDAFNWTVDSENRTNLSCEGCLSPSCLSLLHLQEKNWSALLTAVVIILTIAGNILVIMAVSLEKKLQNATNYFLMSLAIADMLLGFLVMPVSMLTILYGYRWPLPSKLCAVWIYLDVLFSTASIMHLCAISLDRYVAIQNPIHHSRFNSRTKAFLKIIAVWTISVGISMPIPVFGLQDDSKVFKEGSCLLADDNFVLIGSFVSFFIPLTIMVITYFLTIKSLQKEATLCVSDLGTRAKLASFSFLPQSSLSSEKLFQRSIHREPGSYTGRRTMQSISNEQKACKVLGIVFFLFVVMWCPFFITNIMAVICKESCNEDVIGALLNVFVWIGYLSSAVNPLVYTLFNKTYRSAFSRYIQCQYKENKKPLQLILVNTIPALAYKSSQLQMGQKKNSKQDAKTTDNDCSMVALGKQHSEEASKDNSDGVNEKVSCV

[4] = test system: Sprague-Dawley laboratory rats; test: Locomotor activity (ambulations) by infrared photobeams (clozapine studies); type: in vivo, Sprague-Dawley Rattus Norvegicus; settings: ketanserin 3 mg/kg s.c. substituted for clozapine
From the text: Locomotor activity (ambulation) was monitored with infrared photobeams at the same time as DA and 5-HT release in NAcc was detected with BRODERICK PROBES® in conjunction with In Vivo Microvoltammetry. The chamber was faradaic, covered with copper to refract possible electrical artifacts (dimensions: 24 in (width) by 18 in (depth) by 23.5 in (height)). A 16 by 16 array of these infrared photobeams, were held in place by an aluminum frame which was situated ¾ in above the Plexiglas floor of the chamber to detect locomotor activity. Photobeams were sampled by a Pentium computer to define the x-y position of the animal within a 1.5 in resolution every 100 msec. When an x-y position was calculated, it was used to define the frequency of locomotor activity in counts. The locomotor activity system is a modified version of an Activity Pattern Monitor (APM) (San Diego Instruments, San Diego, Calif.). Behavioral data is presented in absolute frequency, i.e., number of counts recorded.
The first hr pre-drug allowed exploratory behavior. Exploratory behavior is defined as open-field behavior of ambulations (forward locomotion) wherein animals respond to the stimuli of a novel environment with high frequency of behavioral counts. The second hr pre-drug allowed the animal to become habituated before treatment.
In the Acute studies, each drug was administered at the end of the habituation period. Baseline (control) values were taken every five min for the last thirty min of the habituation period at which time drug injection(s) took place. Electrochemical recordings for DA and 5-HT release in NAcc, were continued for two hrs; at the same time, locomotor behavior continued to be monitored and recorded with infrared photobeams. At the end of the 2 hr drug(s) study, animals were then placed back in their home cages.
In the Subacute studies, which took place twenty-four hrs later, the animals were again placed in the faradaic behavioral chamber and no further drug was administered. Recordings of separate electrochemical signals for DA and 5-HT release in NAcc, were taken for one hr; at the same time, locomotor behavior was monitored and recorded with infrared photobeams.
(§6) Neurochemical and behavioral data, derived from the last thirty minutes of the habituation period, provided the baseline data. […] Where appropriate, data points in the time course were subjected to 95% Confidence Limits (C.L.).

[5] = test system: DA release in NAcc; test: In vivo microvoltammetry, DA release in NAcc (clozapine studies); parameters: species or system Sprague-Dawley Rattus Norvegicus; settings: ketanserin 3 mg/kg s.c. substituted for clozapine
Experimental: as §1, §2, §3, §4, §5

[6] = test system: 5-HT release in NAcc; test: In vivo microvoltammetry, 5-HT release in NAcc (risperidone studies); parameters: species or system Sprague-Dawley Rattus Norvegicus
Experimental: (§7) In vivo microvoltammetry was used to detect dopamine (DA) and serotonin (5-HT) release from Nucleus Accumbens (NAcc) of freely moving, male, Sprague Dawley laboratory rats, while animals' locomotor (forward ambulations) and stereotypic behavior (fine movements of sniffing and grooming) were monitored at the same time with infrared photobeams. Monoamine release mechanisms were determined by using a depolarization blocker, gamma-butyrolactone (γBL). Miniature carbon sensors, BRODERICK PROBE® Lauric Acid Microelectrodes, smaller than a human hair, were used in conjunction with a semidifferential electrochemical circuit, to detect release of each monoamine in separate signals and within seconds. […] The hypothesis for the present studies is derived from a growing body of evidence that cocaine-induced psychosis and schizophrenic psychosis share similar neurochemical and behavioral manifestations.
(§8) Animals were purchased from Charles River Laboratories, Kingston, N.Y. and were housed in our animal care facilities for two weeks before surgery was performed. The Animal Care Facility operates under the auspices of the CUNY, City College Institutional Animal Care and Use Committee (IACUC) in compliance with National Institute of Health (NIH) guidelines. The weight range for the animals, at the time of the studies, was 350-475 g. Animals were group housed before surgery, individually housed after surgery and fed Purina Rat Chow and water ad libitum. A twelve hr dark-light cycle was maintained both in the housing of the animals and throughout the experimental studies. […] A Ag/AgCl reference electrode was placed in contact with dura, 7 mm anteriorally and contralaterally to the indicator microelectrode. A stainless steel auxiliary microelectrode, was placed in contact with dura.
In vivo microvoltammetric studies on conscious Sprague-Dawley laboratory rats were begun nine to fifteen days after the aseptic surgical operations were performed. On each experimental day, animals were placed in a Plexiglas-copper faradaic chamber. The three-microelectrode assembly, enclosed within the animal's prosthetic acrylic cap, was connected to a CV37 detector by means of a mercury commutator (Br. Res. Instr., Princeton, N.J.), a flexible cable, and a mating connector (BJM Electronics, Staten Island, N.Y.). The CV37 detector was electrically connected to a Minigard surge suppresser (Jefferson Electric, Magnetek, N.Y.) which was then connected to an electrical ground in isolation. […] Each animal was used as its own control. In vivo microvoltammetric scans were recorded in sec and repeated every five min for a period of 2 hrs before each treatment and a period of two hrs after each treatment.
(§9) The first hr pre-drug, allowed exploratory behavior. Exploratory behavior is defined as open-field behavior of ambulations (forward locomotion) and stereotypy (fine movements of sniffing and grooming), wherein animals respond to the stimuli of a novel environment with a high frequency of behavioral counts. The second hr pre-drug allowed the animal to become habituated before treatment. […] In the acute studies, each drug was administered […]. For the subacute studies, twenty four hrs later, the animals were again placed in the faradaic behavioral chamber and no further drug was administered. Each animal was monitored for possible recovery, withdrawal or after-effects. of each treatment WHILE open-field behaviors of locomotions and stereotypy were monitored with computerized infrared photocell beams which surround the faradaic chamber.

[7] = test system: Sprague-Dawley laboratory rats; test: Stereotypy (fine movements of sniffing and grooming) by infrared photobeams (risperidone studies); type: in vivo, Sprague-Dawley Rattus Norvegicus
Experimental: (§10) Behaviors were monitored with infrared photobeams which surrounded the faradaic chamber. Open-field behaviors of locomotion (ambulations) and stereotypy (fine movements of sniffing and grooming) were recorded in sec and repeated every five min for a period of 2 hrs before each treatment and a period of 2 hrs after each treatment. Open-field behaviors were monitored simultaneously with in vivo microvoltammetric recordings of monoamines.
as §9
(§11) The faradaic chamber was made of plexiglas and covered with copper wire to refract possible electrical artifacts (dimensions: 24 inch (width) by 18 inch (depth) by 23.5 inch (height)). A 16 by 16 array of infrared photobeams, held in place by an aluminum frame, was situated ¾ inch above the Plexiglas floor of the chamber to detect locomotor and stereotypic movements. Photobeams were sampled by a Pentium computer to define the x-y position of the animal within a 1.5 inch resolution every 100 msec. When an x-y position was calculated, it was used to define a particular behavioral parameter. This system is a modified version of an Activity Pattern Monitor (APM) (San Diego Instruments, San Diego, Calif.). Behavioral data is presented in terms of Frequency of Events.
as §6

[8] = humans, cited from earlier work
[9] = test system: Sprague-Dawley laboratory rats; test: Locomotion (ambulations) by infrared photobeams (risperidone studies); type: in vivo, Sprague-Dawley Rattus Norvegicus
Experimental: as §10, §9, §11, §6

[10] = test system: 5-hydroxyindoleacetic acid (5-HIAA) in NAcc; settings: risperidone 0.2 mg/kg s.c. and 2.0 mg/kg s.c., time-dependent; cited from earlier work
[11] = test system: DA release in NAcc; test: In vivo microvoltammetry, DA release in NAcc (risperidone studies); parameters: species or system Sprague-Dawley Rattus Norvegicus
Experimental: as §7, §8
In vivo microvoltammetric studies on conscious Sprague-Dawley laboratory rats were begun nine to fifteen days after the aseptic surgical operations were performed. On each experimental day, animals were placed in a Plexiglas-copper faradaic chamber. The three-microelectrode assembly, enclosed within the animal's prosthetic acrylic cap, was connected to a CV37 detector by means of a mercury commutator (Br. Res. Instr., Princeton, N.J.), a flexible cable, and a mating connector (BJM Electronics, Staten Island, N.Y.). […] In vivo microvoltammetric scans were recorded in sec and repeated every five min for a period of 2 hrs before each treatment and a period of two hrs after each treatment.
The first hr pre-drug, allowed exploratory behavior. […] Each animal was monitored for possible recovery, withdrawal or after-effects. of each treatment WHILE open-field behaviors of locomotions and stereotypy were monitored with computerized infrared photocell beams which surround the faradaic chamber.

[12] = target: T1, DA2 receptor (Rattus norvegicus, UniProt P61169); settings: cited from earlier work
T1 construct: host or cells: brain (nucleus accumbens) of dosed animals
T1 sequence (P61169 whole entry): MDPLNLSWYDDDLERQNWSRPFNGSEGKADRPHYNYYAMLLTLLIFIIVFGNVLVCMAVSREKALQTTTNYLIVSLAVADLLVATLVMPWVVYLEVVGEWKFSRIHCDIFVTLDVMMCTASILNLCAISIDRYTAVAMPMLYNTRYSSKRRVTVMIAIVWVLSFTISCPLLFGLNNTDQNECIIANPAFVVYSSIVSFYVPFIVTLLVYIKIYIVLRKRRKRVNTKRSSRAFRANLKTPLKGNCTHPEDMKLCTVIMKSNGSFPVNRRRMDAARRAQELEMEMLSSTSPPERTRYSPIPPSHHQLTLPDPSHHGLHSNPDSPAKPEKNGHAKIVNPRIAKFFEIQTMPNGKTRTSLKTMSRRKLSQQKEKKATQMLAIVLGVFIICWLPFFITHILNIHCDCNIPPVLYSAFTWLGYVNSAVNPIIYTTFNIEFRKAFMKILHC

[13] = risperidone 2 mg/kg s.c. + cocaine 10 mg/kg i.p., entire 2 hr period
[14] = risperidone 2 mg/kg s.c., cocaine 10 mg/kg i.p. or both, 2 hr
[15] = 24 hr after risperidone 2 mg/kg s.c.
[16] = 24 hr after single dose, no further drug
[17] = risperidone 2 mg/kg s.c. + cocaine 10 mg/kg i.p., versus cocaine group

## O=C(c1ccc(F)cc1)C1CCN(CCn2c(=O)[nH]c3ccccc3c2=O)CC1 [ketanserin]
[1]
  Blockade of cocaine-induced 5-HT release, Acute, compared with clozapine: weaker than that of clozapine
[2]
  Affinity for DA2 receptors: does not bind
[3]
  Affinity for 5-HT2A receptors: high affinity
[4]
  Blockade of cocaine-induced psychomotor stimulant behavior, Acute, compared with clozapine: weaker than that of clozapine
[5]
  Blockade of cocaine-induced DA release, Acute, compared with clozapine: weaker than that of clozapine

## Cc1nc2n(c(=O)c1CCN1CCC(c3noc4cc(F)ccc34)CC1)CCCC2 [Risperidone, risperidone]
[6]; 24 hr after single dose, no further drug, 1 hr, cocaine: 15, 20, 50, 55 min time points
  5-HT release in NAcc Day 2 versus Day 1 baseline, Subacute: significantly increased
[6]; Acute, risperidone 2 mg/kg s.c.
  Increase in 5-HT release in NAcc during the time course (up to): about 60%
[6]; Subacute, risperidone 2 mg/kg s.c. on Day 1
  Further increase in 5-HT release on Day 2 compared to drug effect on Day 1 (approximate average): ~25%
[6]; [13]
  Effect on cocaine-induced 5-HT release, Acute: blocked
[6]; [14]
  5-HT release in NAcc versus baseline (habituation), Day 1 Acute: significantly increased
[2]
  Affinity for DA2 receptors: high affinity
[7]; [15]
  Stereotypy maximum frequency, Day 2 (Subacute): about 50 counts
[7]; [16]
  Stereotypy Day 2 versus Day 1 baseline, Subacute: increased stereotypy to a statistically significant degree
[7]; risperidone 2 mg/kg s.c.
  Stereotypy maximum frequency with drug treatment, Day 1: 12 counts
[7]; [13]
  Effect on cocaine-induced stereotypic activity, Acute: blocked
[7]; [14]
  Stereotypy versus baseline (habituation), Day 1 Acute: did not affect
[8]; fast metabolizers
  half-life: 3 h
[8]; slow metabolizers
  half-life: 20 h
[9]; [15]
  Locomotor activity frequency, Day 2 (Subacute): about 200 counts
[9]; [16]
  Locomotion Day 2 versus Day 1 baseline, Subacute: did not affect locomotion to a statistically significant degree
[9]; risperidone 2 mg/kg s.c.
  Locomotor activity frequency with drug treatment, Day1: 50 counts
[9]; [13]
  Effect on cocaine-induced locomotor (psychostimulant) activity, Acute: blocked
[9]; [14]
  Locomotor activity (ambulations) versus baseline (habituation), Day 1 Acute: did not affect
[10]
  Increase in 5-HIAA concentrations above baseline (up to): up to 20%
[11]; 24 hr after single dose (risperidone 2 mg/kg s.c., cocaine 10 mg/kg i.p. or both), no further drug
  DA release in NAcc Day 2 versus Day 1 baseline, Subacute: returned to baseline
[11]; risperidone 2 mg/kg s.c. (N=5) or cocaine 10 mg/kg i.p. (N=4), 2 hr
  DA release in NAcc versus baseline (habituation), Day 1 Acute: significantly increased
[11]; [17]
  Effect on cocaine-induced DA release, Acute, first hr: significant blockade
  Effect on cocaine-induced DA release, Acute, second hr: did not completely block
[12]; NAcc, [3H] spiperone labeling studies
  ED50 of DA2 receptor occupancy: 1.0 mg/kg
[12]; high dose risperidone
  DA2 receptor occupancy: 70%
